In the supplement of paper PMC4858399:
Counter-ions that a name gives are not always drawn.

Key:
Conditions in all cases: exposure time 48 h
[1] = test system: Caenorhabditis elegans N2; assay: AC50 for larval growth inhibition (Hill fit); higher = less potent
In short: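 Synchronised C. elegans N2 L1 larvae (50 per well, 96-well plates) were grown for 48 h at 20°C in K-medium with killed OP50, 1% DMSO and 0.5–200 µM chemical. The COPAS Biosort measured each worm's size as extinction, which was log-transformed and averaged per well. AC50 came from a constrained Hill fit by weighted genetic-algorithm regression on wells with at least 10 worms. Out-of-range values are censored.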

[2] = test system: Caenorhabditis elegans N2; assay: lowest effective concentration for larval growth inhibition (size below effect threshold); higher = less potent
In short: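 Worm size was taken as per-worm extinction on the Biosort, log-transformed and turned into well means. The larvae (C. elegans N2, L1 stage, 50 per 96-well) had spent 48 h at 20°C in K-medium with killed bacteria, 1% DMSO and 0.5, 1, 5, 10, 50, 100 or 200 µM chemical. The lowest effective concentration marks the first dose where the plate-adjusted mean size drops under a cutoff and remains under it at every higher dose; the cutoff is 5.665.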

[3] = test system: Caenorhabditis elegans N2; assay: mean nematode size ln(EXT) after 48 h, plate-adjusted (DMSO control set to 6) (ln(EXT), control-adjusted); higher = larger nematodes / less growth inhibition
In short: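 C. elegans N2 larvae, synchronised at L1, grew for 48 h at 20°C in K-medium with killed OP50, 1% DMSO and 0.5–200 µM chemical. Mean size per well was derived from natural-logged Biosort extinction after a growth model removed debris. Adjustment across plates involved subtracting the vehicle control mean and adding 6.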

Compound	AC50 for larval growth inhibition [1] [µM]	lowest effective concentration [2] [µM]	mean nematode size ln(EXT) (ln) ([3]; 0.5 µM)	mean nematode size ln(EXT) (ln) ([3]; 1 µM)	mean nematode size ln(EXT) (ln) ([3]; 5 µM)	mean nematode size ln(EXT) (ln) ([3]; 10 µM)	mean nematode size ln(EXT) (ln) ([3]; 50 µM)	mean nematode size ln(EXT) (ln) ([3]; 100 µM)	mean nematode size ln(EXT) (ln) ([3]; 200 µM)
CC[C@H](C)[C@@H](C(=O)O)n1sc2ccccc2c1=O	105	200	5.91	6.12	6.17	6.14	6.07	5.94	5.59
CNC(=O)Oc1cccc2c1OC(C)(C)C2 [Carbofuran]	198	100	5.92	5.92	5.84	5.89	5.75	5.39	4.54
CCCOC/C(=N\c1ccc(Cl)cc1C(F)(F)F)n1ccnc1 [Triflumizole]	21.3	100	5.97	6.09	4.54	6.04	5.95	4.88	3.47
CN(C)[C@@H]1C(=O)C(C(N)=O)=C(O)[C@@]2(O)C(=O)C3=C(O)c4c(O)cccc4[C@@](C)(O)[C@H]3C[C@@H]12 [Tetracycline]	103	100	6.03	6.08	6.03	6.05	6.06	5.64	4.89
CCCCCCCCCCCO [1-Undecanol]	18.4	50	5.77	6.01	5.84	5.7	3.79	3.74	4.93
CC1COC(Cn2cncn2)(c2ccc(Oc3ccc(Cl)cc3)cc2Cl)O1 (centres undefined) [Difenoconazole]	1.84	5	4.06	5.79	3.52	5.15	3.59	3.58	3.51
C=CCCCCCCCCC(=O)O [10-Undecenoic acid]	> 200	200	5.77	6	5.9	5.88	5.76	5.8	5.62
CCCCCCCCCCCCCCO [1-Tetradecanol]	19.7	10	5.94	5.92	5.87	5.61	3.67	3.57	3.42
c1ccc(C(O[C@@H]2CCCN(CCc3ccc4c(c3)OCO4)C2)c2ccccc2)cc1 [Zamifenacin]	70.4	10	5.83	5.81	5.73	5.55	4.99	4.17	3.31
CC(C)NC(=O)N1CC(=O)N(c2cc(Cl)cc(Cl)c2)C1=O [Iprodione]	> 200	200	5.99	5.95	5.85	6.06	5.87	5.8	5.4
CCCCCCCCCCO [1-Decanol (Decanol)]	143	200	5.95	5.91	5.83	5.85	5.79	5.69	3.42
CCCCC=O [Pentanal]	185	200	5.98	5.93	5.9	6	6.05	6.02	5.56
CC(C)OC(=O)C(C)(C)Oc1ccc(C(=O)c2ccc(Cl)cc2)cc1 [Fenofibrate]	121	10	5.83	5.81	5.75	5.61	5.19	4.62	4.22
Cc1nc(-c2ccc3c(c2)CCN(CCC2CCC(NC(=O)/C=C/c4ccc(F)cc4)CC2)CC3)no1 (centres undefined)	> 200	100	5.87	5.83	5.82	5.86	5.74	5.6	5.59
O=C(c1ccccc1)c1ccccc1 [Benzophenone]	> 200	100	5.86	6.01	5.94	5.89	5.79	5.66	4.65
CN(C)c1ccc(N=NS(=O)(=O)O)cc1 [Fenaminosulf]	54.8	50	5.95	5.88	5.79	5.86	4.72	3.9	3.5
ClC(Cl)=C(c1ccc(Cl)cc1)c1ccc(Cl)cc1 [p,p'-DDE]	2.64	5	5.79	5.71	4.36	4.21	3.94	3.93	3.67
CCOc1cccc(-n2cc(C(=O)N3CCN(c4cc(C(=O)O)c5ccccc5c4)CC3)nc2-c2ccc(C)cc2)c1	57.9	50	5.89	5.86	5.82	5.84	4.84	4.42	3.94
Nc1ccc(Cl)cc1N [4-Chloro-o-phenylenediamine]	39	50	5.89	5.85	5.91	5.85	5.36	5.03	5.01
Oc1cc2ccccc2c2ccccc12 [9-Phenanthrol]	119	50	5.85	5.85	5.84	5.72	5.41	4.71	4.03
O=C(O)CC(O)C(=O)O (centres undefined) [2-Hydroxybutanedioic acid]	> 200	100	5.83	5.82	5.8	5.81	5.83	5.61	5.58
CCCCCC/C(C=O)=C\c1ccccc1 [2-Benzylideneoctanal]	28.8	50	5.84	5.85	5.79	5.69	5.13	5.22	5.01
CCCN(CCC)c1c([N+](=O)[O-])cc(S(N)(=O)=O)cc1[N+](=O)[O-] [Oryzalin]	> 200	50	5.9	5.91	5.84	5.72	5.27	4.95	4.56

Compound	AC50 for larval growth inhibition [1] [µM]	lowest effective concentration [2] [µM]	mean nematode size ln(EXT) (ln) ([3]; 0.5 µM)	mean nematode size ln(EXT) (ln) ([3]; 1 µM)	mean nematode size ln(EXT) (ln) ([3]; 5 µM)	mean nematode size ln(EXT) (ln) ([3]; 10 µM)	mean nematode size ln(EXT) (ln) ([3]; 50 µM)	mean nematode size ln(EXT) (ln) ([3]; 100 µM)	mean nematode size ln(EXT) (ln) ([3]; 200 µM)
Fc1ccccc1[C@@H](F)CO[C@H]1CC[C@H](Nc2[nH]cnc3nncc2-3)CC1	> 200	100	5.89	5.84	5.82	5.68	5.67	5.25	5.4
N#Cc1c(Cl)cccc1Cl [Dichlobenil]	> 200	200	5.93	5.79	6.11	5.95	5.9	6.01	5.54
C=CCc1ccc2c(c1)OCO2 [Safrole]	188	200	6.12	6.08	5.92	6.02	5.96	6.05	5.62
CCOc1cc(Oc2ccc(C(F)(F)F)cc2Cl)ccc1[N+](=O)[O-] [Oxyfluorfen]	3.64	≤ 0.5	5.57	5.42	4.64	3.99	3.63	3.63	3.46
CCOC(=O)C(C)Oc1ccc(Oc2nc3ccc(Cl)cc3o2)cc1 (centres undefined) [Fenoxaprop-ethyl]	76.3	100	5.83	6.04	6	5.97	5.68	5.4	5.18
Cc1ccccc1CO[C@@H]1C[C@@]2(C(C)C)CCC1(C)O2 [Cinmethylin]	> 200	200	5.94	5.99	6	6.07	5.92	5.77	4.9
O=C(NO)C1(NS(=O)(=O)c2ccc(Oc3ccc(F)cc3)cc2)CCOCC1	> 200	200	5.72	6.03	5.84	5.9	5.89	5.71	5.12
O=C(O)C1(c2ccc3c(c2)OC[C@H](Cc2ccc(-c4ccccc4)cc2)[C@H]3O)CCCC1	52.8	50	5.91	5.83	5.77	5.9	5.16	4.25	4.18
COC(=O)c1ccccc1O [Methyl salicylate]	> 200	200	5.89	5.86	5.82	5.75	5.81	5.78	5.26
Cc1cc2c3c(c1)C(c1ccccc1)=N[C@@H](NC(=O)c1ccncc1)C(=O)N3CC2	> 200	200	5.86	5.88	5.88	5.88	5.9	5.83	5.23
CON(C)C(=O)Nc1ccc(Cl)c(Cl)c1 [Linuron]	104	100	6.04	6.22	6.19	5.98	6.16	5.57	4.43
CCCCCCCCCCCCCCCCO [1-Hexadecanol]	> 200	200	5.89	5.83	5.86	5.79	5.68	5.79	5.64
ClC1=C(Cl)[C@]2(Cl)[C@@H]3[C@@H](Cl)[C@H]4O[C@H]4[C@@H]3[C@@]1(Cl)C2(Cl)Cl (single isomer, unassigned; isomer b) [Heptachlor epoxide, isomer B]	7.71	5	5.72	5.69	5.48	5.44	5.2	5.14	5.11
Cc1cccc(N)c1N [3-Methylbenzene-1,2-diamine]	> 200	200	6.01	5.93	5.87	5.79	5.78	5.79	5.05
CCC1(c2ccccc2)C(=O)NC(=O)NC1=O [Phenobarbital sodium salt]	> 200	200	5.87	5.82	5.88	5.86	5.87	5.91	5.65
O=C1OC(c2ccc(O)cc2)(c2ccc(O)cc2)c2ccccc21 [Phenolphthalein]	> 200	200	5.87	5.86	5.87	5.87	5.78	5.84	5.55
Cc1ncc(CO)c(CO)c1O [Pyridoxine]	> 200	200	5.84	5.88	5.86	5.83	5.87	5.92	5.63
CO/C=C(/C(=O)OC)c1ccccc1COc1cccc(C(F)(F)F)n1 [Picoxystrobin]	48.6	50	5.95	5.83	5.92	5.89	4.97	4.26	4.61
C#CCOC(=O)[C@@H](C)Oc1ccc(Oc2ncc(Cl)cc2F)cc1 [Clodinafop-propargyl]	106	200	5.98	5.9	6.05	5.94	6.15	5.84	5.14
CCCCCCCCCCCCc1ccccc1S(=O)(=O)O [Dodecylbenzenesulfonic acid, Na salt]	50.2	50	5.73	5.72	5.8	5.99	4.92	3.85	3.24
Nc1c(Cl)c(F)nc(OCC(=O)O)c1Cl [Fluroxypyr]	> 200	200	5.6	5.62	5.73	5.61	5.75	5.78	5.64
CN(C)CCCN1c2ccccc2Sc2ccc(Cl)cc21 [Chlorpromazine hydrochloride]	46.3	50	5.89	5.87	5.82	5.71	4.47	3.85	3.07
CSC(=O)c1cccc2nnsc12 [Acibenzolar-S-Methyl]	> 200	10	5.65	5.73	5.67	5.6	5.37	5.36	5.36
